Laboratory results from the NIST ThermoML archive (doi:10.1016/j.jct.2006.01.010).
Numbers after ± are expanded uncertainties.

Assays:
[1] = refractive index (Na D-line) (dimensionless); conditions: 298.15 K; 101.33 kPa; Liquid; Standard Abbe refractometry
[2] = Liquid, Ebulliometric method (Recirculating still)

O=C1CCCC1 [cyclopentanone]
Conditions | refractive index
[1] | 1.4349 ± 0.0008

[2]
Conditions | vapor or sublimation pressure [kPa]
323.15 K | 5.31 ± 0.06
333.15 K | 8.49 ± 0.08
343.15 K | 13.03 ± 0.11
353.15 K | 19.61 ± 0.15
358.85 K | 24.48 ± 0.18
363.15 K | 28.61 ± 0.29
363.45 K | 29.04 ± 0.29
372.25 K | 39.48 ± 0.26
378.35 K | 48.32 ± 0.31
384.15 K | 57.77 ± 0.36
388.85 K | 67.18 ± 0.42
393.25 K | 76.67 ± 0.47
397.65 K | 87.37 ± 0.51
399.75 K | 92.98 ± 0.54
403.05 K | 101.76 ± 0.54

ClC(Cl)C(Cl)Cl [1,1,2,2-tetrachloroethane]
Conditions | refractive index
[1] | 1.492 ± 0.0008

[2]
Conditions | vapor or sublimation pressure [kPa]
343.15 K | 7.24 ± 0.08
353.15 K | 11.23 ± 0.1
363.15 K | 16.65 ± 0.13
373.15 K | 24.17 ± 0.17
379.75 K | 30.48 ± 0.23
389.55 K | 42.33 ± 0.28
396.35 K | 52.48 ± 0.33
401.55 K | 61.35 ± 0.38
405.55 K | 69.05 ± 0.43
409.55 K | 77.59 ± 0.47
413.45 K | 86.66 ± 0.51
416.45 K | 94.27 ± 0.56
418.95 K | 101.08 ± 0.58

O=C1CCCCC1 [cyclohexanone]
Conditions | refractive index
[1] | 1.4481 ± 0.0007

[2]
Conditions | vapor or sublimation pressure [kPa]
343.15 K | 5.57 ± 0.06
353.15 K | 8.6 ± 0.08
363.15 K | 13.07 ± 0.1
373.15 K | 18.9 ± 0.15
385.45 K | 29.1 ± 0.19
394.05 K | 38.41 ± 0.24
401.35 K | 48.2 ± 0.29
407.35 K | 57.43 ± 0.34
414.75 K | 70.59 ± 0.38
419.8 K | 81.35 ± 0.45
424.05 K | 91.55 ± 0.49
427.8 K | 101.1 ± 0.51
